Test results from the CheMixHub ionic liquid set.

Assay: xn = mol fraction of the nth substance listed

CCC[n+]1ccn(C)c1.C[C@H](N)C(=O)[O-] + O
viscosity [mPa·s], 100.3 kPa
Conditions | 288.15 K | 293.15 K | 298.15 K | 303.15 K | 308.15 K | 313.15 K | 318.15 K | 323.15 K | 328.15 K
x1 = 0.0003008 | 1.156 | 1.017 | 0.9 | 0.81 | 0.727 | 0.661 | 0.604 | 0.554 | 0.511
x1 = 0.0003999 | 1.162 | 1.022 | 0.907 | 0.813 | 0.732 | 0.664 | 0.606 | 0.557 | 0.513
x1 = 0.0004953 | 1.167 | 1.027 | 0.911 | 0.817 | 0.735 | 0.666 | 0.608 | 0.559 | 0.516
x1 = 0.001005 | 1.203 | 1.057 | 0.938 | 0.838 | 0.755 | 0.685 | 0.626 | 0.573 | 0.529
x1 = 0.003004 | 1.362 | 1.197 | 1.057 | 0.939 | 0.842 | 0.759 | 0.688 | 0.629 | –
x1 = 0.004999 | 1.513 | 1.326 | 1.163 | 1.028 | 0.917 | 0.828 | 0.749 | 0.685 | –
x1 = 0.007004 | 1.658 | 1.447 | 1.273 | 1.119 | 0.998 | 0.894 | 0.806 | 0.736 | –
x1 = 0.008999 | 1.822 | 1.576 | 1.368 | 1.21 | 1.071 | 0.959 | 0.868 | 0.781 | –
x1 = 0.011 | 1.958 | 1.698 | 1.478 | 1.302 | 1.147 | 1.027 | 0.929 | 0.832 | –
x1 = 0.01301 | 2.101 | 1.819 | 1.581 | 1.38 | 1.225 | 1.089 | 0.986 | 0.888 | –
x1 = 0.015 | 2.247 | 1.941 | 1.678 | 1.469 | 1.293 | 1.157 | 1.037 | 0.932 | –
x1 = 0.01799 | 2.46 | 2.109 | 1.826 | 1.599 | 1.394 | 1.254 | 1.115 | 1 | –

CCCCCCCCCCCCCC[P+](CCCC)(CCCC)CCCC.CCCCCCCCCCCCc1ccc(S(=O)(=O)[O-])cc1 + O
100 kPa
Conditions | viscosity [mPa·s]
323.15 K, x1 = 0.3453 | 116
353.15 K, x1 = 0.892 | 148

Cn1cc[n+](C)c1.[Cl-] + O
viscosity [mPa·s], 100 kPa
Conditions | x1 = 8.631e-05 | x1 = 0.0002029 | x1 = 0.0003509 | x1 = 0.0005369 | x1 = 0.0007226 | x1 = 0.0008926 | x1 = 0.001063 | x1 = 0.001349 | x1 = 0.001718
278.15 K | 1.521 | 1.526 | 1.529 | 1.533 | 1.536 | 1.538 | 1.544 | 1.548 | 1.553
283.15 K | 1.307 | 1.311 | 1.313 | 1.317 | 1.32 | 1.323 | 1.327 | 1.33 | 1.334
288.15 K | 1.141 | 1.143 | 1.145 | 1.148 | 1.15 | 1.152 | 1.155 | 1.159 | 1.164
293.15 K | 1.006 | 1.007 | 1.009 | 1.012 | 1.014 | 1.016 | 1.018 | 1.022 | 1.026
298.15 K | 0.893 | 0.895 | 0.897 | 0.899 | 0.901 | 0.903 | 0.906 | 0.908 | 0.912
303.15 K | 0.802 | 0.803 | 0.804 | 0.805 | 0.806 | 0.808 | 0.811 | 0.813 | 0.817
308.15 K | 0.721 | 0.723 | 0.724 | 0.727 | 0.728 | 0.73 | 0.732 | 0.734 | 0.737
313.15 K | 0.654 | 0.655 | 0.657 | 0.659 | 0.66 | 0.662 | 0.664 | 0.666 | 0.669

CC(=O)[O-].CCCCCCCCCCCCCC[P+](CCCCCC)(CCCCCC)CCCCCC + COCCOCCOCCOCCOC
100 kPa
Conditions | viscosity [mPa·s]
278.15 K, x2 = 0.207 | 651
278.15 K, x2 = 0.499 | 176
283.15 K, x2 = 0.207 | 462
288.15 K, x2 = 0.103 | 549
288.15 K, x2 = 0.4 | 145
298.15 K, x2 = 0.103 | 287
298.15 K, x2 = 0.4 | 88
313.15 K, x2 = 0.103 | 130

CCCCCCCCCCCCCC[P+](CCCCCC)(CCCCCC)CCCCCC.[Cl-] + O
100 kPa, x2 = 0.818
Conditions | viscosity [mPa·s]
318.15 K | 50.65
323.15 K | 41.05

NC(=O)C(F)(F)F + C[P+](c1ccccc1)(c1ccccc1)c1ccccc1.[Br-]
288.15 K, 101.3 kPa, x1 = 0.889
Conditions | electrical conductivity [S/m] | viscosity [mPa·s]
– | 0.035 | 410

CCCCCC[n+]1ccn(C)c1.[Cl-] + CN1CCCC1=O
100 kPa
Conditions | viscosity [mPa·s]
293.15 K, x2 = 0.4223 | 288
298.15 K, x2 = 0.2211 | 1042
298.15 K, x2 = 0.3181 | 467
298.15 K, x2 = 0.5271 | 92.7
298.15 K, x2 = 0.718 | 19.13
298.15 K, x2 = 0.8139 | 8.49
303.15 K, x2 = 0.4223 | 152
308.15 K, x2 = 0.2211 | 481
308.15 K, x2 = 0.718 | 13.69
308.15 K, x2 = 0.8139 | 6.46
313.15 K, x2 = 0.6327 | 21.54
313.15 K, x2 = 0.718 | 11.59
313.15 K, x2 = 0.9083 | 2.78
323.15 K, x2 = 0.3181 | 102.2
323.15 K, x2 = 0.4223 | 54.5
328.15 K, x2 = 0.4223 | 44.4
328.15 K, x2 = 0.718 | 7.66
333.15 K, x2 = 0.9083 | 2.041
